# Assay results reported in ChEMBL document CHEMBL1126802, “Structure-affinity relationship studies on 5-HT1A receptor ligands. 1. Heterobicyclic phenylpiperazines with N4-alkyl substituents” (J Med Chem, 1993).
# Legend:
# [1] = Ionization at 37 degree C; type: ADME
# [2] = molecular target: T1, 5-hydroxytryptamine receptor 1A (Rattus norvegicus, UniProt P19327); experiment: Displacement of radioligand [3H]2-(di-N-propylamino)-8-hydroxytetralin from 5-hydroxytryptamine 1A receptor in rat frontal cortex homogenate; type: tissue-based
# T1 sequence (P19327 whole entry): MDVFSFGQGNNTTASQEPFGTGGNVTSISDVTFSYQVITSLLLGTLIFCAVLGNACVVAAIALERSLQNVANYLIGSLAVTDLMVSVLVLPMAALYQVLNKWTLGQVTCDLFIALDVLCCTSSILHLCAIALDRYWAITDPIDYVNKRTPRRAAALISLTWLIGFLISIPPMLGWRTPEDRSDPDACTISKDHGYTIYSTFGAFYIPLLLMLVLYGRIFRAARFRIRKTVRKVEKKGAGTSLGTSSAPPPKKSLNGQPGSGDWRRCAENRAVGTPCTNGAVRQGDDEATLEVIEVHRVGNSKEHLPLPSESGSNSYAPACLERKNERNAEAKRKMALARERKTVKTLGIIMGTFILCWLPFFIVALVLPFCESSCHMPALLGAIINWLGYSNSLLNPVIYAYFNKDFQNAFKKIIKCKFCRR
# Opioid receptor [3] = molecular target: T2, Opioid receptor (Mus musculus, UniProt P42866+P32300+P33534); experiment: Tested for displacement of radioligand [3H]-Naloxone from opiate receptor; type: protein assay
# [4] = Ionization at 30 degree C; type: ADME
# [5] = Ionization at 20 degree C; type: ADME
# [6] = Ionization at 25 degree C; type: ADME
# [7] = Ionization at 45 degree C; type: ADME
# [8] = molecular target: T1, 5-hydroxytryptamine receptor 1A; experiment: Displacement of radioligand [3H]2-(di-N-propylamino)-8-hydroxytetralin from 5-hydroxytryptamine 1A receptor in rat frontal cortex homogenate (experiment 1); type: tissue-based
# Opioid receptor [9] = molecular target: T2, Opioid receptor; experiment: Tested for displacement of radioligand [3H]-Naloxone from opiate receptor; value ranges from 7-10 uM; type: protein assay
SMILES,Ki [2] [nM],IC50 (Opioid receptor [3]) [nM],other results
CCN1CCN(c2cccc3ccoc23)CC1,23,,pKa [1]: 7.79
CCCCCCCCCN1CCC(C(=O)OCC)(c2ccccc2)CC1,,150,
CCCCCCCCCCN1CCC(C(=O)CC)(c2cccc(O)c2)CC1,,500000,
c1cc2c(c(N3CCN(CCC4CCCCC4)CC3)c1)OCCO2,0.25,,
CC(C)CN1CCN(c2cccc3ccoc23)CC1,64,,
CN1CCN(c2cccc3ccoc23)CC1,8.1,,pKa [1]: 7.54
CCCCN1CCN(c2cccc3ccoc23)CC1,5.9,,pKa [1]: 7.77
Clc1cccc(N2CCNCC2)c1 [CHLOROPHENYLPIPERAZINE],,,pKa [4]: 8.46; pKa [5]: 8.72; pKa [6]: 8.6; pKa [7]: 8.12; Ki [8]: 200 nM; pKa [1]: 8.36
c1cc(N2CCN(CC3CC3)CC2)c2occc2c1,20,,
CCCCN1CCN(c2cccc3c2OCCO3)CC1,12,,pKa [5]: 8.41; pKa [1]: 8.06
CCCCCCN1CCC(C(=O)OCC)(c2ccccc2)CC1,,200,
CCCCCN1CCN(c2cccc3c2OCCO3)CC1,2.2,,pKa [4]: 8.21; pKa [5]: 8.41; pKa [6]: 8.27; pKa [7]: 7.91; pKa [1]: 8.06
CCCCCCCCN1CCN(c2cccc3ccoc23)CC1,1.7,,
CCCN1CCC(C(=O)OCC)(c2ccccc2)CC1,,4000,
CCCCCCN1CCC(C(=O)CC)(c2cccc(O)c2)CC1,,20000,
CCCCCN1CCC(C(=O)OCC)(c2ccccc2)CC1,,400,
CCCCCN1CCN(c2cccc3ccoc23)CC1,0.81,,pKa [1]: > 7.7
CCCCCCCN1CCC(C(=O)CC)(c2cccc(O)c2)CC1,,20000,
CCCCCCCCCCN1CCN(c2cccc3ccoc23)CC1,8,,
c1cc(N2CCN(CC3CCCCC3)CC2)c2occc2c1,7.7,,
CCCCCCN1CCN(c2cccc3ccoc23)CC1,0.54,,
c1cc(N2CCNCC2)c2occc2c1,13,,pKa [5]: 8.84; pKa [1]: 8.44
O=C1c2ccccc2S(=O)(=O)N1CCCCN1CCN(c2ncccn2)CC1 [IPSAPIRONE],5.5,,
CCCCN1CCC(C(=O)OCC)(c2ccccc2)CC1,,900,

SMILES,Ki [2] [nM],IC50 (Opioid receptor [3]) [nM],other results
CCCCCCN1CCN(c2cccc3c2OCCO3)CC1,0.5,,
c1cc2c(c(N3CCNCC3)c1)OCCO2 [ELTOPRAZINE],,,pKa [4]: 8.88; pKa [5]: 9.18; pKa [6]: 8.99; pKa [7]: 8.55; pKa [1]: 8.74
CCC(=O)C1(c2cccc(O)c2)CCN(CC)CC1,,400000,
CC(C)N1CCN(c2cccc3ccoc23)CC1,56,,
CCN1CCN(c2cccc3c2OCCO3)CC1,,,pKa [5]: 8.34; pKa [1]: 8
CCCCN1CCC(C(=O)CC)(c2cccc(O)c2)CC1,,50000,
CCOC(=O)C1(c2ccccc2)CCN(CC)CC1,,5000,
CCCCCN1CCC(C(=O)CC)(c2cccc(O)c2)CC1,,8000,
CCCN1CCN(c2cccc3c2OCCO3)CC1,80,,pKa [5]: 8.36; pKa [1]: 8.02
CCCCCCCCCCN1CCN(c2cccc3c2OCCO3)CC1,1,,
CCCCCN1CCN(c2cccc(Cl)c2)CC1,,,pKa [4]: > 7.5; pKa [5]: > 7.4; pKa [6]: > 7.4; pKa [7]: > 7; Ki [8]: 7.8 nM; pKa [1]: > 7.2
COc1ccccc1N1CCNCC1,170,,
CCCCCCCCN1CCC(C(=O)CC)(c2cccc(O)c2)CC1,,200000,
CCCCCCCCN1CCC(C(=O)OCC)(c2ccccc2)CC1,,30,
CN1CCN(c2cccc3c2OCCO3)CC1,24,,pKa [5]: 8.07; pKa [1]: 7.77
CCCCCCCCCN1CCC(C(=O)CC)(c2cccc(O)c2)CC1,,700000,
c1cc2c(c(N3CCN(CC4CCCCC4)CC3)c1)OCCO2,11,,
CCCCCCCN1CCC(C(=O)OCC)(c2ccccc2)CC1,,55,
CCCN1CCC(C(=O)CC)(c2cccc(O)c2)CC1,,200000,
c1cc(N2CCN(C3CCCCC3)CC2)c2occc2c1,64,,
CCCN1CCN(c2cccc3ccoc23)CC1,29,,pKa [1]: 7.84
CCCCCCCCN1CCN(c2cccc3c2OCCO3)CC1,0.61,,
CCC(=O)C1(c2cccc(O)c2)CCN(C)CC1 [KETOBEMIDONE],,,IC50 (Opioid receptor [9]): 7000 nM
